Source: patent US20240325369A1 (priority 2021, published 2024)
Like-named read-outs stand apart in the source and are kept apart here.

Tested on: metastatic castration-resistant prostate cancer (mCRPC) with DNA-repair anomalies
Conditions: 300 mg once daily; for CTC Response (CTC = 0 at week 8), % of subjects / CTC Response (CTC = 0 at week 8), number of subjects: ITT with baseline CTC >0 (N=131)
Description: The planned sample size was approximately 120 subjects with measurable disease who were biomarker-positive (approximately 75 subjects with DNA repair anomalies in BRCA [BRCA1 or BRCA2] and approximately 45 subjects with biallelic DNA-repair anomalies in non-BRCA [ATM, FANCA, PALB2, CHEK2, BRIP1, or HDAC2]).
Efficacy objectives were evaluated for subjects meeting the biomarker selection criteria described in the protocol. All subjects were monitored for safety during the study period, and up to 30 days after the last dose of study drug. Treatment continued until disease progression, unacceptable toxicity, death, or termination of the study by the sponsor.
Diagnosis and Main Criteria for Inclusion: The target population consisted of male subjects over the age of 18 years with mCRPC and DNA-repair anomalies (biallelic mutations and germline pathogenic mutations only for BRCA1 or BRCA2 mutations) who had received at least 1 prior taxane-based chemotherapy and at least 1 prior AR targeted therapy (second-generation or later). Subjects were asked to provide a tumor tissue sample (archival or recently collected, if available), and a blood sample for analysis of DNA-repair anomalies using a sponsor-validated assay.
Criteria for Evaluation: Efficacy assessments included chest, abdomen, and pelvis CT or MRI scans and whole-body bone scans (^99mTc) to evaluate objective response and disease progression.
The primary endpoint was ORR and summarized for the BRCA analysis set along with the 95% 2-sided exact CI. In addition, the counts and percentage of subjects in each response category (CR. PR, etc.) were tabulated. ORR in non-BRCA subjects was analyzed in the same way.
Descriptive summaries of CTC response were generated for BRCA and non-BRCA analysis sets, measurable and non-measurable subgroups and tabulated with its 2-sided 95% exact CI. Waterfall plots of percent change in CTC were also presented, showing the percentage change in CTC counts from baseline to 8 weeks, as well as maximal CTC count declines. All time to event secondary endpoints were evaluated using Kaplan-Meier method for BRCA and non-BRCA analysis sets. Median time to event and the corresponding 95% CI were provided. Descriptive summaries were provided for BRCA and non-BRCA analysis sets.
Time to degradation was determined using the following meaningful change threshold values: FACT-P Total (10-point reduction from baseline), EQ-5D-5L Index (0.09-point reduction from baseline). EQ-5D-5L VAS (10-point reduction from baseline), and BPI SF worst pain intensity item (30% reduction from baseline).
The primary endpoint was ORR, defined as the proportion of subjects with BRCA DNA-repair anomalies and measurable disease whose best response was either CR or PR as defined by RECIST 1.1 (Eisenhauer et al 2009) and who had no evidence of bone progression according to the PCWG3 criteria (Scher et al 2016).
ORR final analysis was performed approximately 6 months from Cycle 1 Day 1 of the last subject with a BRCA DNA-repair anomaly and measurable disease. Objective response as determined by investigator assessment was considered as the primary analysis.
Subjects who discontinued the study without a response assessment were considered as non-responders in the analysis. The objective response rate was calculated and its 2-sided 95% exact CI presented. In addition, the counts and percentage of subjects in each response category (CR, PR, etc.) were tabulated.
The following analyses of CTC response were performed for BRCA and non-BRCA analysis sets, measurable and non-measurable subgroups: • Descriptive summaries • CTC response rate was tabulated with its 2-sided 95% exact CI
All time to event secondary endpoints were evaluated using Kaplan-Meier method for BRCA and non-BRCA analysis sets. Median time to event and the corresponding 95% CI were provided. Descriptive summaries were provided for BRCA and non-BRCA analysis sets.

[1] = BRCA, ITT (N=142), Kaplan-Meier
[2] = BRCA, measurable ITT responders (N=26)
[3] = BRCA, measurable ITT responders (N=26), Kaplan-Meier
[4] = BRCA, patients with baseline CTC ≥5 (n=117)
[5] = NON-BRCA, measurable ITT responders (N=5)
[6] = NON-BRCA, measurable ITT responders (N=5), Kaplan-Meier

**Q.** How did the “Time to PSA progression: time to event, Median” value [1] turn out when `NC(=O)c1cccc2cn(-c3ccc([C@@H]4CCCNC4)cc3)nc12` [Niraparib, 2-[4-[(3S)-piperidin-3-yl]phenyl]-2H-indazole-7-carboxamide] was run?
**A.** 5.13 months

**Q.** And the “Time to radiographic progression: time to event, 25th percentile” value [1]?
**A.** 4.76 months

**Q.** And the “Time to radiographic progression: time to event, 75th percentile” value [1]?
**A.** 11.63 months

**Q.** And the “Time to symptomatic skeletal event (SSE): time to event, Median” value [1]?
**A.** 13.80 months

**Q.** What about the “Time to symptomatic skeletal event: time to event, 25th percentile” value [1] of the same compound?
**A.** 7.52 months

**Q.** And the “rPFS: time to event, 25th percentile” value [1]?
**A.** 4.44 months

**Q.** What about the “rPFS: time to event, 75th percentile” value [1] of the same compound?
**A.** 11.56 months

**Q.** And the “CTC Response (CTC = 0 at week 8), % of subjects” value (BRCA)?
**A.** (23.7%)

**Q.** And the “CTC Response (CTC = 0 at week 8), number of subjects” value (BRCA)?
**A.** 31

**Q.** What about the “CTC Response (CTC = 0 at week 8), % of subjects” value (BRCA, listed as niraparib) of the same compound?
**A.** (23.7) %

**Q.** What about the “CTC Response (CTC = 0 at week 8), number of subjects” value (BRCA, listed as niraparib) of the same compound?
**A.** 31/131

**Q.** And the “DOR, median (range)” value (BRCA, as printed in Table 13)?
**A.** 6.28 mo

**Q.** And the “Best Overall Response: Complete Response (CR), % of subjects” value (BRCA, measurable ITT (N=76))?
**A.** 2.6%

**Q.** What about the “Best Overall Response: Complete Response (CR), number of subjects” value (BRCA, measurable ITT (N=76)) of the same compound?
**A.** 2

**Q.** What about the “Best Overall Response: Not Available (NA), % of subjects” value (BRCA, measurable ITT (N=76)) of the same compound?
**A.** 9.2%

**Q.** And the “Best Overall Response: Not Available (NA), number of subjects” value (BRCA, measurable ITT (N=76))?
**A.** 7

**Q.** And the “Best Overall Response: Partial Response (PR), % of subjects” value (BRCA, measurable ITT (N=76))?
**A.** 31.6%

**Q.** And the “Best Overall Response: Partial Response (PR), number of subjects” value (BRCA, measurable ITT (N=76))?
**A.** 24

**Q.** And the “Best Overall Response: Progressive Disease (PD), % of subjects” value (BRCA, measurable ITT (N=76))?
**A.** 21.1%

**Q.** What about the “Best Overall Response: Progressive Disease (PD), number of subjects” value (BRCA, measurable ITT (N=76)) of the same compound?
**A.** 16

**Q.** What about the “Best Overall Response: Stable Disease (SD), % of subjects” value (BRCA, measurable ITT (N=76)) of the same compound?
**A.** 35.5%

**Q.** And the “Best Overall Response: Stable Disease (SD), number of subjects” value (BRCA, measurable ITT (N=76))?
**A.** 27

**Q.** And the “ORR (objective response rate, RECIST 1.1, no bone progression per PCWG3), % of subjects” value (BRCA, measurable ITT (N=76))?
**A.** 34.2%

**Q.** And the “ORR (objective response rate, RECIST 1.1, no bone progression per PCWG3), number of subjects” value (BRCA, measurable ITT (N=76))?
**A.** 26

**Q.** And the “Objective response confirmed: Complete Response (CR), % of subjects” value (BRCA, measurable ITT (N=76))?
**A.** 2.6%

**Q.** And the “Objective response confirmed: Complete Response (CR), number of subjects” value (BRCA, measurable ITT (N=76))?
**A.** 2

**Q.** And the “Objective response confirmed: Partial Response (PR), % of subjects” value (BRCA, measurable ITT (N=76))?
**A.** 31.6%

**Q.** What about the “Objective response confirmed: Partial Response (PR), number of subjects” value (BRCA, measurable ITT (N=76)) of the same compound?
**A.** 24

**Q.** And the “Duration of objective response: 6-month event-free rate” value [2]?
**A.** 0.464

**Q.** And the “Duration of objective response: 12-month event-free rate” value [2]?
**A.** 0.000

**Q.** And the “Duration of objective response: 18-month event-free rate” value [2]?
**A.** 0.000

**Q.** What about the “Duration of objective response: 24-month event-free rate” value [2] of the same compound?
**A.** 0.000

**Q.** What about the “Duration of objective response: Censored, % of subjects” value [2] of the same compound?
**A.** (23.1%)

**Q.** What about the “Duration of objective response: Censored, number of subjects” value [2] of the same compound?
**A.** 6

**Q.** What about the “Duration of objective response: Event, % of subjects” value [2] of the same compound?
**A.** (76.9%)

**Q.** And the “Duration of objective response: Event, number of subjects” value [2]?
**A.** 20

**Q.** And the “Duration of objective response: time to event, 25th percentile” value [3]?
**A.** 3.75 months

**Q.** What about the “Duration of objective response: time to event, 75th percentile” value [3] of the same compound?
**A.** 7.20 months

**Q.** And the “Duration of objective response: time to event, Median” value [3]?
**A.** 5.55 months

**Q.** And the “CTC conversion (CTC count ≥5/7.5 mL blood at baseline to <5/7.5 mL blood at nadir), % of subjects” value [4]?
**A.** 47.0%

**Q.** And the “CTC conversion (CTC count ≥5/7.5 mL blood at baseline to <5/7.5 mL blood at nadir), number of subjects” value [4]?
**A.** 55

**Q.** And the “Time to PSA progression: 12-month event-free rate” value (NON-BRCA, ITT (N=81))?
**A.** 0.000

**Q.** And the “Time to PSA progression: 18-month event-free rate” value (NON-BRCA, ITT (N=81))?
**A.** 0.000

**Q.** What about the “Duration of objective response: 6-month event-free rate” value [5] of the same compound?
**A.** 0.500

**Q.** What about the “Duration of objective response: 18-month event-free rate” value [5] of the same compound?
**A.** 0.000

**Q.** What about the “Duration of objective response: 24-month event-free rate” value [5] of the same compound?
**A.** 0.000

**Q.** What about the “Duration of objective response: Censored, % of subjects” value [5] of the same compound?
**A.** (20.0%)

**Q.** What about the “Duration of objective response: Censored, number of subjects” value [5] of the same compound?
**A.** 1

**Q.** And the “Duration of objective response: Event, % of subjects” value [5]?
**A.** (80.0%)

**Q.** And the “Duration of objective response: Event, number of subjects” value [5]?
**A.** 4

**Q.** And the “Duration of objective response: time to event, 25th percentile” value [6]?
**A.** 2.96 months

**Q.** And the “Duration of objective response: time to event, 75th percentile” value [6]?
**A.** 6.95 months

**Q.** And the “Duration of objective response: time to event, Median” value [6]?
**A.** 5.16 months
